Test results as given in a melting point compilation (Tetko et al.; mined from patent text by program, amines drawn as free bases though some values may be those of a salt).

Row | SMILES | melting point
1 | O=c1ccccn1[C@@H]1c2cc(C(F)(F)C(F)(F)C(F)(F)F)ccc2OC(CF)(CF)[C@H]1O (relative stereo) | 111 to 113 °C
2 | Cc1sc2c(c1C)C(c1ccc(Cl)cc1)=NCc1nnc(C)n1-2 | > 250 °C
3 | COC(=O)N(C)NC(=O)Oc1ccccc1 | 86 °C
4 | COc1cc(CCC(=O)CC(=O)c2ccccc2)ccc1O | 76 to 78 °C
5 | O=S(=O)(/C=C/c1ccc(I)cc1)CS(=O)(=O)/C=C/c1ccc(I)cc1 | 253 to 255 °C
6 | OC(CCc1ccccc1)c1cnc2sc3c(n12)CCC3 (stereo not drawn) | 117 to 118 °C
7 | O=C(CCN1CCC(N2Cc3ccccc3C2=O)CC1)c1ccccc1 | 87 to 90 °C
8 | N#Cc1c(Br)[nH]c(-c2ccccc2)c1C#N | 225 to 258 °C
9 | Cc1oc2c(NC(=O)c3c(Cl)cccc3Cl)cccc2c1CN | 200 to 203 °C
10 | CN(N)C(=S)Nc1ccc([N+](=O)[O-])cc1Cl | 164 to 167 °C
11 | CN(C(=O)C(F)(F)F)C1Cc2ccc(C(=O)CCl)cc2C1 (stereo not drawn) | 130 to 131 °C
12 | CCCc1nc(SC(F)F)c(C(=O)O)n1Cc1ccc(-c2ccccc2S(=O)(=O)NC(=O)NCc2ccccc2Cl)cc1 | 134 °C
13 | CCOC(=O)Cc1cccc(C(=O)c2ccc(Br)cc2)c1N | 107 to 109 °C
14 | COc1ccccc1NCN1C(=O)CN(C)C1=O | 93 to 96.5 °C
15 | CCN1CCC(OC)(c2cccc(F)c2F)C1 (single isomer, unassigned; (+)) | 104 to 106 °C
16 | CCOC(=O)C1CCN(C(=O)CN2CCN(c3ccncc3)CC2)CC1 | 102 to 104 °C
17 | O=C(NCc1ccc2c(c1)OCO2)c1ccc2n1Cc1ccccc1N(C(=O)CSc1ccc(Br)cc1)C2 | 154 to 155 °C
18 | C=CCC1(CC=C)c2cc(Br)ccc2-c2ccc(N(c3ccccc3)c3ccccc3)cc21 | 141 to 143 °C
19 | Nc1nnc(SCC(=O)C23CC4CC(CC(C4)C2)C3)s1 | 198 to 199 °C
20 | O=C(NC1N=C(c2ccccc2F)c2ccccc2NC1=O)c1cc2ccccc2o1 (racemic) | 289 to 291 °C
21 | C=C(CO)COCCCCCCCCCCCCCCCC | 34 °C
22 | CC1Sc2nccn2C1(C)C(O)CCc1ccco1 (stereo not drawn) | 144 to 145 °C
23 | COc1cc([C@@H](O)[C@@H](C)N2CCC(O)(c3ccccc3)CC2)ccc1O (relative stereo) | 188 °C
24 | N#CN=C(NCNC(=O)c1ccc(Cl)cc1)Nc1cccnc1 | 196 to 197 °C
25 | COC(=O)C(CO)N(Cc1ccc(Cl)cc1N)S(=O)(=O)c1ccc(OC)cc1 (stereo not drawn) | 99 to 112 °C
26 | COc1ccc(-n2c(-c3ccccc3)cc3c2CCCC3)cc1 | 132 to 133 °C

Row | SMILES | melting point
27 | CC1CCC2(C(=O)O)CCC3(C)C(=CCC4C5(C)CC(O)C(O)C(C)(C)C5CCC43C)C2C1C (stereo not drawn) | 242 to 244 °C
28 | NC(=O)N(O)Cc1ccsc1 | 129 to 131 °C
29 | O=C(O)C1Sc2ccccc2-c2ccccc21 (stereo not drawn) | 156 to 159 °C
30 | C=CC1CCC2C3CC(=O)C4=CC(=O)CCC4(C)C3CCC12C (stereo not drawn) | 114 to 120 °C
31 | N#CC(=Cc1ccc[nH]1)c1cccnc1 | 139 to 142 °C
32 | CCc1c(Cc2ccccc2)oc2c(C(=O)NCCCN3CCN(c4ccccc4OC)CC3)cccc12 | 110 to 112 °C
33 | COC(=O)c1ncn(C2OC(COC(=O)c3ccccc3)C(OC(=O)c3ccccc3)C2OC(=O)c2ccccc2)n1 (stereo not drawn) | 137 to 139 °C
34 | Cc1ccc(C(=O)N2CCC3(CC2)OCCO3)cc1 | 59 to 61 °C
35 | O=C(NC1CCC(CCN2CCN(c3nccc4c3OCC4)CC2)CC1)C1CCOC1 (stereo not drawn) | 195 °C
36 | O=C(O)C(=O)c1ccc(OCCOc2ccc(Cl)cc2)cc1 | 121 to 122 °C
37 | CCCCC(C(=O)c1ccc(Cl)cc1)n1cncn1 (stereo not drawn) | 81 to 83 °C
38 | CC(C)(C)NC(=O)[C@@H]1C[C@H](Cl)CN1C(=O)[C@@H](O)[C@H](Cc1ccccc1)NC(=O)[C@H](CCS(C)(=O)=O)NC(=O)OCc1ccccc1 | 99 to 103 °C
39 | CC=CCn1c(=O)n(C2OC(CO)C(O)C2O)c2nc(N)[nH]c(=O)c21 (stereo not drawn) | 167 to 170 °C
40 | CC(O)C(NC(=O)OCc1ccccc1)C(=O)NN (stereo not drawn) | 135 °C
41 | Cc1cc(-n2ccc(OCCc3ccccc3)cc2=O)sc1C(=O)NCc1ccccc1 | 159 to 160 °C
42 | Nc1ccccc1C(=O)NCCCCn1ccnc1 | 91 to 93 °C
43 | CCOP(=O)(OCC)c1ccc(C(=O)O)cc1 | 101 °C
44 | CCC(CC)(C(N)=O)c1ccc(Cl)cc1 | 107 to 109 °C
45 | COC(=O)C(NS(=O)(=O)c1ccc(-c2ccc(NC(=O)c3cc4c(OC(C)C)cccc4o3)cc2)cc1)C(C)C (stereo not drawn) | 226 to 229 °C
46 | Cc1ccc(C(=O)Nc2c(NC(=O)CN3CCN(c4ncccn4)CC3)ccc3c2C(=O)c2ccccc2C3=O)cc1 | 267 to 268 °C
47 | Cc1cc(C)c2cccc(OCc3c(Cl)ccc(S(=O)(=O)N4CCC[C@H]4C(=O)NCCCNC(=O)c4cccc(C=NN)c4)c3Cl)c2n1 | 116 to 120 °C
48 | O=C(CNCc1ccccc1)Nc1cccc2[nH]ccc12 | 158 to 161 °C
49 | O=C(Cc1c[nH]cn1)NC(P(=O)(O)O)P(=O)(O)O | 247 to 250 °C
50 | CCCCCc1cnc(N2CCC(c3ccc(COc4ccc(S(C)(=O)=O)cc4)nc3)CC2)nc1 | 154 to 157 °C
51 | Cc1cccnc1N[C@H]1CC[C@H](C2CCCCC2)CC1 | 65 to 67 °C

The next lines start with the values.

Row | melting point | SMILES
52 | 47 to 58 °C | Cc1nc(N=CN(C)C)sc1C
53 | 154 °C | C=CCc1cc2c(c(CC=C)c1O)CCC(=O)N2c1ccc(OC)cc1
54 | 150 to 151 °C | O=C(O)CCCc1oc(Cl)nc1-c1ccc(Cl)cc1
55 | 138 to 141 °C | COc1c(C)nc2sc(Cl)cn2c1=O
56 | 117 to 119 °C | Cn1cc(S(=O)(=O)C(F)(F)F)c(-c2ccc(Cl)cc2)c1Cl
57 | 188 to 191 °C | OCc1cc(-c2ccc3nnn(Cc4ccc5ncccc5c4)c3n2)cs1
58 | 108 °C | OC1CSC(Oc2cc(-c3ccccn3)ccc2Cl)C(O)C1O (stereo not drawn)
59 | 114 °C | N#Cc1cc(F)c(F)cc1N
60 | 193 to 194 °C | CCOC(=O)c1sc(SC)c2c1CCc1cn(C)nc1-2
61 | 84 to 86 °C | Cc1cc(C)cc(COC(=O)[C@H](Cc2ccc3ccccc3c2)NC(=O)OC(C)(C)C)c1
62 | 156 to 158 °C | COc1cc(CC(=O)Nc2nn(-c3ccccc3)cc2C=O)ccc1OCc1nc(-c2ccccc2)oc1C
63 | 112 °C | CCOC(=O)Cc1cc2c(N=C3SC[C@@H]4Cc5ccccc5CN34)cccc2cn1
64 | > 250 °C | CC(C)n1nc(-c2[nH]c(=O)c(N)nc2-c2ccccc2)ccc1=O
65 | 95 to 96 °C | CC[C@@H](Cc1ccc(OC)c(C(=O)NCc2ccccc2Oc2ccc(F)cc2)c1)C(=O)O
66 | 154 to 156 °C | Cc1nc2cc(-c3nn(C(C)c4oc5ccccc5c(=O)c4-c4cccc(F)c4)c4ncnc(N)c34)ccc2[nH]1 (stereo not drawn)
67 | 127 to 128 °C | CCn1nc(-c2cccc(Cl)c2)c(C(C)=O)c(Nc2cccc3cccnc23)c1=O
68 | 271 to 272 °C | CSc1n[nH]c(-c2cc(C(C)(C)C)c(O)c(C(C)(C)C)c2)n1
69 | 134 to 136 °C | Cc1cn(-c2ccc3nnc4c(C)nc(CC(C)C)n4c3c2)c(CC(C)C)n1
70 | 80 °C | CC#CCOc1ccc(S(=O)(=O)C(C(=O)NO)C2CCN(C(=O)OC(C)(C)C)CC2)cc1 (stereo not drawn)
71 | 75 to 78 °C | O=C(c1cncnc1)c1ccc(Cl)cc1Cl
72 | 185 to 192 °C | COCCNc1ccc2c(c1)OC(c1ccccc1)C(c1ccc3c(c1)NC(=O)CO3)=C2 (stereo not drawn)
73 | 77.7 °C | CC(C)(C)OC(=O)N1CCC(NCc2cccc(NC(=O)c3ccc(F)cc3)n2)CC1
74 | 94 to 96 °C | CC(C)(ON1C(C)(C)CC(OC(=O)CCCCCCCCC(=O)OC2CC(C)(C)N(OC(C)(C)c3ccccc3)C(C)(C)C2)CC1(C)C)c1ccccc1
75 | 65 to 66 °C | CC(C)(C)c1ccc(Sc2ccc([N+](=O)[O-])cc2)cc1

Row | melting point | SMILES
76 | 251 to 253 °C | COc1cccc2cc(C(=O)O)oc(=O)c12
77 | 166 to 168 °C | COc1ccc(CN2CCC(c3cc(-c4ccc(Cl)cc4)[nH]n3)CC2)cc1
78 | 105 to 106 °C | CC(C)c1nc(C(F)(F)F)ccc1C(=O)c1c(S(C)(=O)=O)noc1C1CC1
79 | 230 to 231 °C | COc1ccc(C(=O)NC(CC(C)C)C(=O)O)c(SSc2cc(OC)ccc2C(=O)NC(CC(C)C)C(=O)O)c1 (stereo not drawn)
80 | > 250 °C | CSc1nc(-c2ccncc2)n(-c2ccc(C)cc2)c(=O)c1C#N
81 | 165 °C | COc1ccc(C(=O)Nc2ccc3ccc(OCC(=O)N(C)C)nc3n2)cc1
82 | 142 to 143 °C | Cc1nnc2c(-c3ccccn3)cccn12
83 | 169 to 171 °C | COc1cc2c(CC#N)c(Br)[nH]c2cc1Br
84 | 151 °C | C#CCSc1nn(C(=O)NS(=O)(=O)c2c(C)cccc2OCCC)c(=O)n1C
85 | 200 to 202 °C | CCCCNC(=O)Nc1ncc2cc(-c3c(Cl)cccc3Cl)c(NC(=O)NCCCC)nc2n1
86 | 121 °C | CC(C)(C)OC(=O)N1CCC[C@H]1C(=O)OCCCNc1cccc2c1C(=O)c1ccccc1C2=O
87 | 37 to 38 °C | COC(=O)CCCCCCCCCC1=C(C)C(=O)C(OC)=C(OC)C1=O
88 | 82 to 83 °C | COc1ccc(-n2nc(OCC(F)(F)F)nc2-c2ccc(OC)nc2)cc1
89 | 223 to 225 °C | Oc1ccnn1-c1c(Cl)cc(C(F)(F)F)cc1Cl
90 | 199 to 201 °C | CC(=O)Oc1ccc(NC(C)=C2C(=O)OC(=O)C(C(C)=O)=C2O)cc1
91 | > 250 °C | Cc1ccc(C)n1-c1cc2c(cc1C(F)(F)F)[nH]c(=O)c(=O)n2CC(=O)NCc1ccccc1
92 | 100 to 102 °C | COC(=O)c1cc(-c2ccc(SC)cc2)nn(CC2CC2)c1=O
93 | 65.5 °C | Cc1cc(C)c(C)c(C(=O)CCl)c1C
94 | 145 to 148 °C | Nc1ccccc1-c1ncn[nH]1
95 | > 260 °C | O=C1c2ccccc2C(=O)c2oc(-c3ccc(F)cc3)nc21
96 | 223 to 226 °C | COc1cc(Cc2cnc(N)nc2N)cc(-c2cccc(NS(=O)(=O)c3ccc(N)cc3)c2)c1OC
97 | 257 to 260 °C | CC1(C)OC(=O)Nc2ccc(-c3ccc(C#N)o3)cc21
98 | 133 to 135 °C | CCN=c1[nH]c2ccccc2c2nc(-c3ccco3)nn12
